Experiments:
[1] = system: anti-HRP antibody, anti-hCG antibody, anti-CRP antibody, anti-HBsAg antibody; test: One-step immunoassay on solid support, release of switching binder on target antigen binding (FIGS. 8A to 8D); set-up: species or system rabbit, mouse, goat; conditions: after treatment with target antigen (HRP, hCG, CRP, HBsAg); 10 or 20 μM switching binder; fluorescence
Protocol: With reference to FIG. 8A, anti-HRP antibody was treated and fixed overnight on a solid support at a concentration of 1 μg/ml, and the switching binder 100 of SEQ ID NOs. 1 to 4 were each treated at a concentration of 10 μM (100 μl/well) for 2 hours. At this time, after measuring the fluorescence of the bottom, the antigen HRP as an analyte for an IgG antibody of rabbit was treated at a concentration of 10 μg/ml for 1 hour. With reference to FIG. 8B, anti-HCG antibody was treated and fixed overnight on a solid support at a concentration of 1 μg/ml, and the switching binder 100 of SEQ ID NOs. 1 to 4 were each treated at a concentration of 20 μM (100 μl/well) for 2 hours. At this time, after measuring the fluorescence of the bottom, the antigen HCG as an analyte for an IgG antibody of a mouse was treated at a concentration of 100 μg/ml for 2 hours.
With reference to FIG. 8C, anti-CRP antibody was treated and fixed overnight on a solid support at a concentration of 1 μg/ml, and the switching binder 100 of SEQ ID NOs. 1 to 4 were each treated at a concentration of 20 μM (100 μl/well) for 2 hours. At this time, after measuring the fluorescence of the bottom (A), the antigen […] as an analyte for an IgG antibody of rabbit was treated at a concentration of 10 μg/ml for 1 hour. […] At this time, after measuring the fluorescence of the bottom (A), the antigen HBsAg as an analyte for an IgG antibody of a goat was treated at a concentration of 10 μg/ml for 1 hour.
Referring to FIGS. 8A to 8D, the switching binder 100 was tested using the switching binder of SEQ ID NOs. […] The labeling reaction may be a fluorescence reaction. […]
Referring to FIGS. 8A to 8D, it can be seen that the remaining amount (B) of the switching binder 120 bound to the framework region (FR) was reduced compared to the amount (A) of the switching binder 110 bound to the antibody 10 in all of the switching binder of SEQ ID NO. […] In addition, it can be seen that the amount (C) of the switching binder 130 separated from the framework region (FR) is measured. […]
This is because the amount (A) of the switching binder 110 bound to the antibody 10 is the intensity of fluorescence observed on the surface of the support 30, but the amount (C) of the switching binder 130 separated from the framework region (FR) is the intensity of fluorescence observed in the solution phase. […] According to an embodiment of the present disclosure, as described above, it is possible to quantify the target antigen 20 by the difference between the amount of the switching binder 110 bound to the antibody 10 measured in the pretreatment step (S100) and the amount of the switching binder 120 in the remaining amount bound to the framework region (FR) in the assay step (S300). […]

[2] = system: anti-influenza B antibody; test: Bead-based antibody binding one-step immunoassay (FIGS. 9A and 9B); conditions: influenza B versus CRP at 10 ng/mL; separated and remaining switching binder quantified
[3] = system: switching binder of SEQ ID NO. 2 (H2) / switching binder of SEQ ID NO. 3 (L1); test: FRET test of mutual binding between switching binders H2 and L1 (FIG. 5E)
Source text: 2 (H2) and the switching binder of SEQ ID NO. 3 (L1). Accordingly, it can be confirmed that the switching binder of SEQ ID NO. 2 […] can self-bind and interact with the LAR region of the light chain (VL), and the switching binder of SEQ ID NO. 3 (L1) can self-bind and interact with the HAR region of the heavy chain (VH). Through this, the switching binder 100 having an amino acid sequence extracted from the heavy chain (VH) can bind to the antigen-binding portion 15 including the framework region (FR) of the light chain (VL), and the switching binder 100 having an amino acid sequence extracted from the light chain (VL) can bind to the antigen-binding portion 15 including the framework region (FR) of the heavy chain (VH).

[4] = target: anti-HRP antibody / HRP; test: Antigen-binding coefficient of the antibody in solution measured via isolated switching binder (FIGS. 10A to 10D); conditions: target antigen HRP, anti-HRP antibody not immobilized; calculated from amount of isolated switching binder; read-out: antigen-binding coefficient (Kd) of the antibody in solution, measured using the switching binder
Source text: The pretreatment step (S100″) may include providing the switching binder 100 to an antibody 10 to obtain a mixed solution containing a first conjugate (b1) of the antibody 10 and the switching binder 100, and the switching binder 100 not bound to the antibody 10 (S110); and removing the switching binder 100 not bound to the antibody 10 from the mixed solution (S120). For example, the mixed solution passes through a desalting column to remove the unbound switching binder passing through the desalting column […], and only the first conjugate (b1) passing through the desalting column later can be obtained. The above-described method is exemplary, and various known techniques for separating the first conjugate and the switching binder 100 may be referred to.
Then, as the step of providing an analyte, in the antigen processing step (S200″), the step of separating the first conjugate (b1) from the framework regions (FR, FR) by binding the target antigen 20 to the antibody 10 may be performed. […]
Then, the assay step (S300″) may further include the steps of separating the second conjugate (b2) of the antibody 10 to which the switching binder 130 separated from the antibody 10 and the target antigen 20 are bound (S310); and quantifying the separated switching binder 130 (S320). […] Thereafter, only the separated switching binder 130 may be selectively obtained and quantified through a labeling reaction. At this time, as the concentration of the target antigen 20 increases, the amount of the switching binder 130 separated from the second conjugate (b2) increases, thereby increasing the fluorescence amount of the solution.
In an embodiment, in the assay step (S300″), a test kit that can measure the amount of the switching binder 130 separated according to the increase in the concentration of the target antigen 20 and measure the binding strength of the target antigen 20 to the antibody 10 can be provided. In order to measure the binding strength, the antigen-binding coefficient (Kd) of the antibody 10 may be measured. […]

[5] = system: switching binder of SEQ ID NO. 1 (H1) / switching binder of SEQ ID NO. 4 (L2); test: FRET test of mutual binding between switching binders H1 and L2 (FIG. 6E)
Source text: 1 (H1) and the switching binder of SEQ ID NO. 4 […]. Through this, it can be confirmed that the switching binder of SEQ ID NO. 1 (H1) can interact with the LBR region of the light chain (VL), and the switching binder of SEQ ID NO. 4 (L2) can interact with the HBR region of the heavy chain (VH). Through this property, the switching binder 100 binds to the framework region (FR), and thus the same effect as the interaction between the framework regions (FR) can be obtained.

[6] = system: anti-HRP antibody; test: SPR analysis of switching binder binding to immobilized antibody (FIG. 7B); conditions: 10 and 20 μM peptide
Source text: Referring to FIG. 7B, in an embodiment, a result of a surface plasmon resonance (SPR) analysis may be confirmed. Surface Plasmon Resonance (SPR) uses a phenomenon that when a material binds to the surface of a metal thin film such as gold, the refractive index of the metal surface changes. When the light is irradiated, the concentration of the material bound to the metal surface can be measured by examining the resonance angle at which the SPR phenomenon occurs among the reflected light.
Specifically, in order to confirm the SPR signal result, the gold surface was treated overnight with 1 mM mercaptoundecanoic acid (MUA) and surface-modified prior to immobilization of the antibody 10. Carbodiimide/N-Hydroxysuccinimide (EDC/NHS, 0.4 M/0.1 M) was mixed in a 1:1 ratio and treated for 10 minutes to activate functional groups. […] The SPR signal can be measured as an average value by repeating the routine of measuring the SPR signal for 3 minutes while the solution is stopped after flowing 1% Tween-20 washing solution for 1 minute three times.
However, the embodiment is not limited to the embodiment of the present disclosure and may include any method capable of measuring the binding strength of the switching binder 100. […] As a result of peptide treatment at a low concentration of 10 μM, shown in the graph on the left (B1), the SPR signal was calculated as the peptide of SEQ ID NO. […]

With “TYLEWYPQKPGQSPKLLIYK [L1, TYLEWYPQKPGQSPKLLIYK]” as the sequence, how does the “remaining amount (B) of switching binder bound to framework region compared to amount (A) bound to antibody” value [1] read?
The value was “reduced”.

What about the “bead-based one-step immunoassay feasibility” value [2] of the same sequence?
The value was “possible”.

And the “FRET mutual binding between H2 and L1” value [3]?
Its value is “mutual binding”.

What about the Kd [4] of the same sequence?
The Kd was 890 nM.

With “SYWIHWVKQRPGQGLEWIGE [H1, SYWIHWVKQRPGQGLEWIGE]” as the sequence, how does the “FRET mutual binding between H1 and L2” value [5] read?
The value was “mutual binding”.

What about the “remaining amount (B) of switching binder bound to framework region compared to amount (A) bound to antibody” value [1] of the same sequence?
Its value is “reduced”.

What about the “bead-based one-step immunoassay feasibility” value [2] of the same sequence?
The value was “possible”.

For “VYYCAREPTGTGIYFDVWGK [H2, VYYCAREPTGTGIYFDVWGK]”, which “remaining amount (B) of switching binder bound to framework region compared to amount (A) bound to antibody” value [1] is on record?
Its value is “reduced”.

What about the “FRET mutual binding between H2 and L1” value [3] of the same sequence?
Its value is “mutual binding”.

And the Kd [4]?
The Kd was 2900 nM.

Which “FRET mutual binding between H1 and L2” value [5] does the source give for “VYYCFQGSHVPFTK [L2, V-Y-Y-C-F-Q-G-S-H-V-P-F-T-K]” here?
The value was “mutual binding”.

And the “remaining amount (B) of switching binder bound to framework region compared to amount (A) bound to antibody” value [1]?
The value was “reduced”.

And the “binding to the antibody by SPR” value [6]?
Its value is “binds the most”.

What about the Kd [4] of the same sequence?
The Kd was 1200 nM.

Source: patent publication US20230073007A1, “SWITCHING BINDER, PREPARATION METHOD THEREFOR, AND PHARMACEUTICAL COMPOSITION, ASSAY KIT, AND ANTIGEN AND ANTIBODY ASSAY METHOD, EACH USING SAME” (OPTOLANE TECHNOLOGIES INC., priority 2019, published 2023)
